Measurements from patent publication US9808470B2, “Estrogenic components for use in the treatment of neurological disorders” (UNIVERSITE DE LIEGE, priority 2012, dated 2017).

Tests used:
Assay type in all cases: in vivo
[1] = test system: intact cells in hippocampus and cortex; assay: Ex.2 neonatal HIE rat model, pre-treatment: hematoxylin-eosin staining and intact cell counting
Description: Paraformaldehyde-fixed paraffin embedded samples of the removed brains were coronally sectioned at the same level of the hippocampus region in accordance to the Paxinos rat brain atlas (Paxinos and Watson 2007. In: The rat brain in stereotaxic coordinates, 6th edition). Thickness of sections was 5 μm. Hematoxylin-eosin staining was performed. Briefly, sections were deparaffinized in xylene and rehydrated in graded ethanol concentrations before staining. Slides were stained with hematoxylin, rinsed for a few seconds in water, then placed in 1% eosin and washed, dehydrated, and coverslipped.
Intact cell counting was performed on hematoxylin-eosin-stained sections of the rat pups brains at magnification 400× in 3 fields of the respective brain area. Countings were performed in cortex and hippocampus (regions: dentate gyrus (DG), subgranular zone (SGZ), cornu ammonis (CA1, CA2/CA3)). The sections were analyzed with the aid of a microscope (Olympus BX51, Olympus, Tokyo, Japan), an image scanner (DotSlide Digital Virtual Microscopy, Olympus, Germany) and ImageJ software (NIH, US).
Intact cells are uninjured. Injured cells are characterized by a pale eosinophilic staining along with non-uniform nuclear densities-shrunken, condensed, or pale and enlarged.
After delivery, newborn rat pups were assigned to one of the following 4 groups: Sham group, Vehicle group, E4 5 mg/kg/per day group and E4 50 mg/kg/per day group. From day 4 to day 7 inclusive, rat pups were injected intraperitoneally either vehicle (Vehicle group) or E4 (5 mg/kg or 50 mg/kg in accordance to the group assignment) or not injected at all (Sham group). At day 7, 30 minutes after last injection, animals from Vehicle and E4 (5 mg/kg or 50 mg/kg) groups passed through surgery encompassing left common carotid artery double ligation and cut, followed by hypoxia produced by the inhalation of 11%-8% of oxygen balanced by nitrogen at decreased concentration for 20 minutes, followed by inhalation of 8% oxygen and 92% nitrogen at constant concentration for 35 minutes. The Sham group went through similar procedures without left common carotid artery ligation and hypoxia. All the manipulations were performed at 37° C. Rat pups recovered with their dams until being sacrificed at postnatal day 14.

[2] = test system: Myelin Basic Protein (MBP); assay: Ex.7 neuroprotective HIE rat model: myelin basic protein staining; settings: vs vehicle
Excerpt: FIG. 21. Myelin Basic Protein (MBP) staining of brain coronal sections in rat pups that were pre-treated with estetrol. Brains were removed upon sacrifice at postnatal day 14 and paraformaldehyde-fixed and paraffin-embedded brain samples were coronally sectioned at the hippocampus region. The sections were processed for detection of white matter damage through immunohistological staining with anti-MBP antibody. (A-F) MBP staining of brain coronal sections (scale bar: 2 mm) is shown. (G-L) MBP staining of cingulum of the left hemisphere is (scale bar: 2 mm) shown. (M) The ratio of the MBP positive areas OD ratio was calculated as the MBP positive area OD of the ipsilateral hemisphere divided by the MBP positive area OD of the contralateral hemisphere. 10 samples from each study group were analyzed. The ratio of the MBP positive area OD in the Sham group was considered by default as 1.0.
The sections were processed for immunohistochemical detection of neuronal myelin basic protein disruption. For antigen retrieval, the sections were heated in 10 mmol/L citrate buffer (pH 6.0) at 100° C. for 10 min. […] 10 samples from each study group of both study designs were analyzed with the aid of an image scanner (Nanozoomer Virtual Microscopy, Hamamatsu, Tokyo, Japan) and ImageJ software (NIH, USA). The MBP positive areas optical densities in the ipsilateral and contralateral hemispheres were measured. […]

[3] = test system: vascular endothelial growth factor (VEGF); assay: Ex.4 therapeutic HIE rat model: VEGF staining
Description: The sections were heated in 10 mmol/L citrate buffer (pH 6.0) at 100° C. for 10 minutes. Endogenous peroxidase activity was blocked with 3% hydrogen peroxide for 10 minutes and after a second blocking with 5% normal goat serum, the sections were incubated with anti-doublecortin (DCX) antibody, diluted 1:1000 (rabbit polyclonal antibody; Abcam, Cambridge, UK) and anti-vascular endothelial growth factor (VEGF) antibody, diluted 1:100 (mouse monoclonal antibody; Abcam, Cambridge, UK) overnight at 4° C. After rinsing, Alexa Fluor® goat anti-rabbit, diluted 1:1000 and Alexa Fluor® goat anti-mouse, diluted 1:1000 (Invitrogen Inc., Ghent, Belgium) were added and sections were incubated 1 h at room temperature. Mounting medium containing 4′,6-diamidino-2-phenylindole (DAPI) for fluorescent studies was used (Vector Laboratories). Samples were analyzed with the aid of a microscope (Olympus Vanox AHBT3, Olympus), and the ImageJ software (NIH). The percentage of positively stained cells was quantified as a sum of positively stained either DCX or VEGF cells divided by the total number of DAPI positive cells expressed in percentage.
To study the therapeutic effect of estetrol, newborn rat pups were assigned to one of the following 6 groups at postnatal day 7: sham group (n=29), vehicle group (n=20), 1 mg/kg E4 group (n=16), 5 mg/kg E4 group (n=19), 10 mg/kg day E4 (n=17) and 50 mg/kg day E4 group (n=15). At postnatal day 7 animals were anesthetized with isoflurane (induction, 3.0%; maintenance, 1.5%), and the rat pups from vehicle and E4 groups passed through surgery encompassing left common carotid artery double ligation and cut. After surgery, the pups were returned to their dams and allowed to recover for 1 hour. The pups were then placed in a humidified hypoxic in vivo cabinet (CoyLab). Hypoxia was produced by the inhalation of 11%-8% of oxygen balanced by nitrogen at decreased concentration of oxygen for 20 minutes, followed by inhalation of 8% oxygen and 92% nitrogen at constant concentration for 35 minutes. All the manipulations were performed at 37° C.
Upon retrieval from the hypoxia chamber the rat pups were injected intraperitoneally either by vehicle (vehicle group) or by E4 (1 mg/kg, 5 mg/kg, 10 mg/kg or 50 mg/kg) in accordance to the group assignment. The animals from the sham group went through similar procedures but proceeded neither left common carotid artery ligation and cut followed by hypoxia nor vehicle or estetrol administration. Rat pups recovered with their dams until being sacrificed at postnatal day 14.

C[C@]12CC[C@@H]3c4ccc(O)cc4CC[C@H]3[C@@H]1[C@@H](O)[C@@H](O)[C@@H]2O [E4, 1,3,5(10)-estratrien-3,15α,16α,17β-tetrol]
number of intact cells per visual field ([1]; E4 5 mg/kg ip day 4-7 before HI, DG, vs Vehicle): significantly higher | number of intact cells per visual field ([1]; E4 5 mg/kg ip day 4-7 before HI, SGZ, vs Sham and Vehicle): significantly higher | number of intact cells per visual field ([1]; E4 50 mg/kg ip day 4-7 before HI, CA2/CA3, vs Vehicle and E4 5 mg/kg): significantly higher number of intact cells | number of intact cells per visual field ([1]; E4 50 mg/kg ip day 4-7 before HI, cortex, vs Vehicle): significantly higher number of intact cells | number of intact cells per visual field ([1]; E4 5 and 50 mg/kg ip day 4-7 before HI, CA1, among study groups): non-significant difference | Hematoxylin-Eosin staining of hippocampus region ([1]; E4 5 and 50 mg/kg ip day 4-7 before HI, day 14): neuroprotective effect | ratio of the MBP-positive area OD ([2]; 5 mg/kg/day E4 pre-treated): significantly higher | ratio of the MBP-positive area OD ([2]; 50 mg/kg/day E4 pre-treated): significantly higher | percentage of VEGF positively stained cells ([3]; 5 mg/kg E4 single ip dose after HI, CA1): 37.4±4.833% | percentage of VEGF positively stained cells ([3]; 10 mg/kg E4 single ip dose after HI, CA1): 37.1±3.84% | percentage of VEGF positively stained cells ([3]; 10 mg/kg E4 single ip dose after HI, cortex): 49.4±4.949% | percentage of VEGF positively stained cells ([3]; 50 mg/kg E4 single ip dose after HI, CA1): 45.1±4.753% | percentage of VEGF positively stained cells ([3]; E4 1, 5, 10, 50 mg/kg single ip dose after HI, CA2/CA3, between study groups): not significantly different between the study groups | VEGF staining ([3]; E4 1, 5, 10, 50 mg/kg single ip dose after HI, DG, among study groups): neither DCX nor VEGF staining was significantly different
